Drawing on PubChem BioAssay AID1259407 (Chemical Carcinogenesis Research Information System (CCRIS), 2018), this text covers mutagenic call for seven compounds.

Active and inactive are the calls of the source. How the calls were made is not given here.

The test system of the data set is CCRIS mutagenicity, Ames/micronucleus/aberration tests. The data set can be described thus: CCRIS mutagenicity studies.
Where [1] appears, read: Test System: AMES SALMONELLA TYPHIMURIUM, Strain/Indicator: TA98, Metabolic Activation: HAMSTER, LIVER, S-9, AROCLOR 1254 (10%), Method: PREINCUBATION
Where [2] appears, read: Test System: AMES SALMONELLA TYPHIMURIUM, Strain/Indicator: TA98, Metabolic Activation: NONE, Method: PREINCUBATION
[3] abbreviates: Test System: AMES SALMONELLA TYPHIMURIUM, Strain/Indicator: TA98, Metabolic Activation: RAT, LIVER, S-9, AROCLOR 1254 (10%), Method: PREINCUBATION
Where [4] appears, read: Test System: AMES SALMONELLA TYPHIMURIUM, Strain/Indicator: TA100, Metabolic Activation: HAMSTER, LIVER, S-9, AROCLOR 1254 (10%), Method: PREINCUBATION
Where [5] appears, read: Test System: AMES SALMONELLA TYPHIMURIUM, Strain/Indicator: TA100, Metabolic Activation: NONE, Method: PREINCUBATION
Where [6] appears, read: Test System: AMES SALMONELLA TYPHIMURIUM, Strain/Indicator: TA100, Metabolic Activation: RAT, LIVER, S-9, AROCLOR 1254 (10%), Method: PREINCUBATION
The mark [7] stands for this setting: Test System: AMES SALMONELLA TYPHIMURIUM, Strain/Indicator: TA1535, Metabolic Activation: HAMSTER, LIVER, S-9, AROCLOR 1254 (10%), Method: PREINCUBATION
The mark [8] stands for this setting: Test System: AMES SALMONELLA TYPHIMURIUM, Strain/Indicator: TA1535, Metabolic Activation: NONE, Method: PREINCUBATION
[9] abbreviates: Test System: AMES SALMONELLA TYPHIMURIUM, Strain/Indicator: TA1535, Metabolic Activation: RAT, LIVER, S-9, AROCLOR 1254 (10%), Method: PREINCUBATION
[10] abbreviates: Test System: AMES SALMONELLA TYPHIMURIUM, Strain/Indicator: TA1537, Metabolic Activation: HAMSTER, LIVER, S-9, AROCLOR 1254 (10%), Method: PREINCUBATION
Where [11] appears, read: Test System: AMES SALMONELLA TYPHIMURIUM, Strain/Indicator: TA1537, Metabolic Activation: NONE, Method: PREINCUBATION
[12] abbreviates: Test System: AMES SALMONELLA TYPHIMURIUM, Strain/Indicator: TA1537, Metabolic Activation: RAT, LIVER, S-9, AROCLOR 1254 (10%), Method: PREINCUBATION
Setting [13] is: Test System: AMES SALMONELLA TYPHIMURIUM, Strain/Indicator: TA98, Metabolic Activation: NONE, Method: STANDARD PLATE.
Where [14] appears, read: Test System: AMES SALMONELLA TYPHIMURIUM, Strain/Indicator: TA100, Metabolic Activation: NONE, Method: STANDARD PLATE.
Where [15] appears, read: Test System: AMES SALMONELLA TYPHIMURIUM, Strain/Indicator: TA1538, Metabolic Activation: NONE, Method: STANDARD PLATE.
Where [16] appears, read: Test System: AMES SALMONELLA TYPHIMURIUM, Strain/Indicator: TA98, Metabolic Activation: RAT, LIVER, S-9, AROCLOR 1254, Method: STANDARD PLATE.
The mark [17] stands for this setting: Test System: AMES SALMONELLA TYPHIMURIUM, Strain/Indicator: TA1535, Metabolic Activation: NONE, Method: STANDARD PLATE.
The mark [18] stands for this setting: Test System: AMES SALMONELLA TYPHIMURIUM, Strain/Indicator: TA1535, Metabolic Activation: RAT, LIVER, S-9, AROCLOR 1254, Method: STANDARD PLATE.
[19] abbreviates: Test System: AMES SALMONELLA TYPHIMURIUM, Strain/Indicator: TA1537, Metabolic Activation: NONE, Method: STANDARD PLATE.
[20] abbreviates: Test System: AMES SALMONELLA TYPHIMURIUM, Strain/Indicator: TA1537, Metabolic Activation: RAT, LIVER, S-9, AROCLOR 1254, Method: STANDARD PLATE.

With `CCOP(=O)(OCC)OCC`, the mutagenic call is “inactive; negative” under setting [1]; “inactive; negative” under setting [2]; “inactive; negative” under setting [3]; “inactive; negative” under setting [4]; “inactive; negative” under setting [5]; “inactive; negative” under setting [6]. The mutagenic call was “inactive; negative” (Test System: AMES SALMONELLA TYPHIMURIUM, Strain/Indicator: TA102, Metabolic Activation: NONE, Method: STANDARD PLATE); “inactive; negative” under setting [7]; “inactive; negative” under setting [8]; “inactive; negative” under setting [9]; “inactive; negative” under setting [10]; “inactive; negative” under setting [11]. Further, the mutagenic call reads like this: under setting [12], “inactive; negative”; (Test System: AMES SALMONELLA TYPHIMURIUM, Strain/Indicator: TA2638, Metabolic Activation: NONE, Method: STANDARD PLATE) “inactive; negative”; (Test System: E. COLI, Strain/Indicator: WP2 (PKM101), Metabolic Activation: NONE, Method: STANDARD PLATE) “inactive; negative”; (Test System: E. COLI, Strain/Indicator: WP2 UVRA (PKM101), Metabolic Activation: NONE, Method: STANDARD PLATE) “inactive; negative”.
For the compound `CC[C@H]1OC(=O)[C@H](C)[C@@H](O[C@H]2C[C@@](C)(OC)[C@@H](O)[C@H](C)O2)[C@H](C)[C@@H](O[C@@H]2O[C@H](C)C[C@H](N(C)C)[C@H]2O)[C@](C)(O)C[C@@H](C)[C@@H]2N[C@@H](COCCOC)O[C@H]([C@H]2C)[C@]1(C)O`, the mutagenic call is, setting by setting: (End Point: In vitro chromosomal aberrations, Test System: Chinese hamster lung (CHL) cells, Metabolic Activation: None) “inactive; negative”; (End Point: In vitro chromosomal aberrations, Test System: Chinese hamster lung (CHL) cells, Metabolic Activation: S-9) “inactive; negative”.
For `O=[N+]([O-])c1ccc(NCCO)c(OCCO)c1`, the mutagenic call runs as follows: under setting [1], “active; positive”; under setting [2], “active; positive”; under setting [3], “active; positive”; under setting [4], “active; positive”; under setting [5], “active; positive”; under setting [6], “active; positive”. Also, the mutagenic call under setting [7] is “inactive; negative”; the mutagenic call under setting [8] was “active; positive”; the mutagenic call under setting [9] was “inactive; negative”; the mutagenic call under setting [10] is “active; positive”; the mutagenic call under setting [11] was “active; positive”; the mutagenic call under setting [12] was “active; positive”.
Regarding `CC(=O)[C@]1(O)Cc2c(O)c3c(c(O)c2[C@@H](O[C@H]2C[C@H](N)[C@H](O)[C@H](C)O2)C1)C(=O)c1ccccc1C3=O`, the mutagenic call is, setting by setting: (Test System: AMES SALMONELLA TYPHIMURIUM, Strain/Indicator: GW257, Metabolic Activation: NONE, Method: STANDARD PLATE) “active; positive”; under setting [13], “active; positive”; under setting [14], “active; positive”; under setting [15], “active; positive”; (Test System: CHINESE HAMSTER V-79, Strain/Indicator: V-79/6-THIOGUANINE, Metabolic Activation: NONE, Method: SUSPENSION/PLATE) “active; positive”; (Test System: UDS RAT HEPATOCYTES, Strain/Indicator: THY INCORP, Metabolic Activation: NONE, Method: AUTOMATIC COLONY COUNTER) “active; positive”.
As to `Nc1ccc(O)c2c1C(=O)c1c(O)ccc(N)c1C2=O`, the mutagenic call under setting [13] was “active; positive”; the mutagenic call under setting [16] is “active; positive”; the mutagenic call under setting [17] was “inactive; negative”; the mutagenic call under setting [18] is “inactive; negative”; the mutagenic call under setting [19] is “active; positive”; the mutagenic call under setting [20] was “active; positive”. The mutagenic call under setting [15] was “active; positive”; the mutagenic call (Test System: AMES SALMONELLA TYPHIMURIUM, Strain/Indicator: TA1538, Metabolic Activation: RAT, LIVER, S-9, AROCLOR 1254, Method: STANDARD PLATE) is “active; positive”; the mutagenic call (Test System: AMES SALMONELLA TYPHIMURIUM, Strain/Indicator: TA1978, Metabolic Activation: NONE, Method: STANDARD PLATE) is “inactive; negative”; the mutagenic call (Test System: AMES SALMONELLA TYPHIMURIUM, Strain/Indicator: TA1978, Metabolic Activation: RAT, LIVER, S-9, AROCLOR 1254, Method: STANDARD PLATE) is “inactive; negative”.
As for `CC(C)(C)Cl`, the mutagenic call is, setting by setting: (Test System: Mouse lymphoma, Strain/Indicator: L5178Y (tk+/tk-), Metabolic Activation: None, Method: Suspension/plate) “inactive; negative”; (Test System: Mouse lymphoma, Strain/Indicator: L5178Y (tk+/tk-), Metabolic Activation: Rat, Liver, S-9, Aroclor 1254, Method: Suspension/plate) “inactive; negative”.
On to `CS(=O)(=O)n1ncc(Cl)c(Cl)c1=O`, for which the mutagenic call was “inactive; negative” under setting [13]; “inactive; negative” under setting [16]; “active; positive” under setting [14]; “active; positive” (Test System: AMES SALMONELLA TYPHIMURIUM, Strain/Indicator: TA100, Metabolic Activation: RAT, LIVER, S-9, AROCLOR 1254, Method: STANDARD PLATE); “inactive; negative” under setting [17]; “inactive; negative” under setting [18]. In addition, the mutagenic call under setting [19] is “inactive; negative” and the mutagenic call under setting [20] was “inactive; negative”.
